Test results published in US9364493B2, “Methods and compositions for enhancing the uptake of therapeutic agents by target cells” (Tsinghua University, priority 2011, dated 2016).

Legend:
[1] = test system: Human microvascular endothelial cells (HMECs); assay: Internalization of ES and its derivatives in blood vessel endothelial cells (Western Blotting); format: cell-based; settings: for effect on ES internalization in endothelial cells: tested in place of NT: AMB 25-50 μg/mL, methyl-β-cyclodextrin 1-2 mM, filipin 2.5-5 μg/mL; for increase of ES internalization: then ES 5 μg/mL 30 min, vs cells without NT
Description: Human microvascular endothelial cells (HMECs) were from ATCC (accession number CRL 10636). Mouse lymphatic endothelial cells (mLEC) were isolated via digesting peritoneal lymphoma induced by incomplete Freund's adjuvant injection (Zhuo W. et al, Journal of Pathology; 222:249-260). […] (SEQ ID NO:5) at N-terminal, the sequence of which is SEQ ID NO.3 or SEQ ID NO.4 because the first amino acid residue M will be randomly deleted when expressed in E. Coli. ES was obtained from Protgen Ltd., the amino acid sequence of which is SEQ ID NO.1 or SEQ ID NO.2 because the first amino acid residue M will be randomly deleted when expressed in E. Coli. Monomethoxy PEG propionaldehyde (mPEG-ALD) with an average molecular weight of 20 kDa (Jenkem Technology CO., Ltd.,) was used as the PEG reagent for specifically modifying the α-amino group at N-terminal of a protein. PEG-ES and PEG-Endu were prepared by Protgen Ltd. according to the instructions provided in the PEG reagent kit. Monoclonal antibody against ES was purchased from Oncogene Science, Inc. NT and other reagents were purchased from Sigma-Aldrich Co.
The endothelial cells were cultured to reach 90% confluence, and then pre-treated with DMEM medium (Hyclone) containing NT as follows. NT stock solution was added to the medium to a final concentration of 0 μg/mL, 25 μg/mL, or 50 μg/mL, and the culture was then incubated in a 5% CO2 atmosphere at 37° C. for 20 min for NT pre-treatment. After pre-treatment, ES stock solution (5 mg/ml) was added to the medium to a final concentration of 5 μg/mL. The culture was then incubated in a 5% CO2 atmosphere at 37° C. for 30 min to allow the internalization of ES by the endothelial cells. After removing the medium, the endothelial cells were washed with ice-cold PBS for 3 times and then collected. The ES internalization in whole cell lysate, cytosolic fraction, and nuclear fraction was examined by Western Blotting, compared with the cells without NT treatment.
Some other agents which share the same action mechanism as NT were also tested in place of in this example, such as AMB (25-50 μg/mL), methyl-β-cyclodextrin (1-2 mM), and filipin (2.5-5 μg/mL).
Other therapeutic agents which share the same action mechanism as ES can also be used in this example, such as PEG-modified ES. For this purpose, ES was modified with monomethoxy PEG propionaldehyde (mPEG-ALD) of 20 kDa which specifically modifies the N-terminal of a protein, and the product (PEG-ES) was an ES protein conjugated with one PEG molecule at the N-terminal α-amino group of ES.

[2] = test system: Mouse lymphatic endothelial cells (mLEC); assay: ES internalization in lymphatic endothelial cells (Western Blotting); format: cell-based; settings: then ES 2 μg/mL 15 min
Description: Human microvascular endothelial cells (HMECs) were from ATCC (accession number CRL 10636). Mouse lymphatic endothelial cells (mLEC) were isolated via digesting peritoneal lymphoma induced by incomplete Freund's adjuvant injection (Zhuo W. et al, Journal of Pathology; 222:249-260). Endu was obtained from Simcere-Medgenn Bio-pharmaceutical Co., Ltd. Endu is a recombinant ES containing an additional amino acid sequence (M)GGSHHHHH (SEQ ID NO:5) at N-terminal, the sequence of which is SEQ ID NO.3 or SEQ ID NO.4 because the first amino acid residue M will be randomly deleted when expressed in E. Coli. ES was obtained from Protgen Ltd., the amino acid sequence of which is SEQ ID NO.1 or SEQ ID NO.2 because the first amino acid residue M will be randomly deleted when expressed in E. Coli. Monomethoxy PEG propionaldehyde (mPEG-ALD) with an average molecular weight of 20 kDa (Jenkem Technology CO., Ltd.,) was used as the PEG reagent for specifically modifying the α-amino group at N-terminal of a protein. PEG-ES and PEG-Endu were prepared by Protgen Ltd. according to the instructions provided in the PEG reagent kit. Monoclonal antibody against ES was purchased from Oncogene Science, Inc. NT and other reagents were purchased from Sigma-Aldrich Co.
The mLECs were pre-treated with DMEM (Hyclone) containing 0, 75, 150, or 300 μg/mL NT in a 5% CO2 atmosphere at 37° C. for 20 min. The cells were then incubated with culture media containing ES (final concentration of 2 μg/mL) in a 5% CO2 atmosphere at 37° C. for 15 min. After treatment, the cells were washed with PBS for 3 times, and then collected. The ES internalization in cells treated with NT at various concentrations was examined by Western Blotting.

[3] = test system: tumor blood vessel endothelial cells (CD31) in A549 tumors; assay: Tumor blood vessel formation assay (CD31 immunofluorescence), A549 mice; format: in vivo, nude mice; settings: NT 6 mg/kg plus ES 12 mg/kg vs ES alone, CD31 blood vessel area
Description: Tumor blood vessel formation assay: Tumors from A549 mice were resected, fixed and sectioned. Samples were detected with primary antibody against CD31 (the marker of tumor blood vessel endothelial cells) and FITC-labeled secondary antibody (Santa Cruz), and then observed with Nikon A1 laser scanning confocal microscope (LSCM). The sectional areas of blood vessels in randomly selected fields (400×) were quantified and averaged with the software of the LSCM system.

H22 liver cancer = H22 liver cancer mouse model; format: in vivo
[4] = test system: EGFR-expressing A549 cells; assay: EGFR monoclonal antibody (Cetuximab) internalization in tumor cells (Western Blotting); format: cell-based, human; settings: NT 25 or 50 μg/mL pre-treatment 20 min, then Cetuximab 5 μg/mL 30 min; positively correlated to NT concentrations
Procedure: EGFR-expressing A549 cells at exponential growth were cultured to reach 90% confluence and then pre-treated with DMEM medium containing NT as follows. NT stock solution was added to the medium to a final concentration of […], 25 μg/mL, or 50 μg/mL, and the culture was then incubated in a 5% CO2 atmosphere at 37° C. for 20 min for NT pre-treatment. After pre-treatment, EGFR monoclonal antibody (Cetuximab, Merck) stock solution (5 mg/ml) was added to the medium to a final concentration of 5 μg/mL. The culture was then incubated in a 5% CO2 atmosphere at 37° C. for 30 min to allow the internalization of EGFR monoclonal antibody by the […]. After treatment, the medium was removed, and the endothelial cells were washed with ice-cold PBS for 3 times and then collected. The EGFR monoclonal antibody internalization in cells was examined by Western Blotting, compared with EGFR monoclonal antibody internalization in cells without NT treatment.

p38 MAPK pathway = assay: p38 MAPK signaling pathway activation in endothelial cells (Western Blotting); format: cell-based; settings: NT 50 μg/mL 20 min and/or ES 5 μg/mL 30 min; vs negative control
Procedure: (§1) In this example, endothelial cells were separated into four groups: (1) negative control group, neither NT treatment, nor ES treatment; (2) NT group, treatment with NT at 50 μg/mL for 20 min, without ES treatment; (3) ES group, treatment with ES at 5 μg/mL for 30 min, without NT treatment; (4) NT plus ES group, treatment with NT at 50 μg/mL for 20 min, followed by treatment with ES at 5 μg/mL for 30 min. After treatment with the same method as described in Example 1, cells were collected and the ERK and p38 MAPK pathways were examined.

[5] = test system: Human lung adenocarcinoma A549 tumor; assay: A549 lung adenocarcinoma tumor growth in nude mice; format: in vivo; settings: NT 6 mg/kg i.p. daily alone, fourteen daily injections; vs control group
Procedure: Human lung adenocarcinoma A549 tumor cells (ATCC accession number CCL-185) at exponential growth were subcutaneously inoculated into 6-8 week-old nude mice (Vital River Laboratory Animal Technology Co., Ltd). When the tumor volume reached 100 mm^3, the tumor bearing nude mice were separated into four groups: (1) negative control, treatment with saline; (2) NT group, treatment with NT (6 mg/kg, intraperitoneal injection, daily), without ES treatment; (3) ES group, treatment with ES (12 mg/kg, intraperitoneal injection, daily), without NT treatment; (4) NT plus ES group, combined treatment with NT (6 mg/kg, intraperitoneal injection, daily) and ES (12 mg/kg, intraperitoneal injection, daily). After fourteen daily injections, mice were sacrificed, and the weight and volume of the tumors were measured.

ERK pathway = assay: ERK signaling pathway activation in endothelial cells (Western Blotting); format: cell-based; settings: NT 50 μg/mL 20 min and/or ES 5 μg/mL 30 min; vs negative control
Procedure: as §1

HMEC = assay: Transwell cell migration assay; format: cell-based, human; settings: NT 50 μg/mL alone; 10 ng/mL VEGF, 6 hours; vs negative control
Procedure: Cell migration assay: HMEC (2×10^4 cells per well) were seeded into DMEM (Hyclone) containing 0.5% FBS (Hyclone) and 10 ng/mL VEGF (PeproTech) on the upper layer of Transwell chambers (8 μm pores, Costar). ES (40 μg/mL) or NT (50 μg/mL) was added into both the upper and lower layers, and then the chambers were incubated in a 5% CO2 atmosphere at 37° C. for 6 hours to allow cell migration. […] The numbers of the cells migrated into the lower layer were counted and mean values were calculated. Experiments were performed in triplicate and each experiment was repeated twice.
In this example, endothelial cells were separated into four groups: (1) negative control group, neither NT treatment, nor ES treatment; (2) NT group, treatment with NT at 50 μg/mL, without ES treatment; (3) ES group, treatment with ES at 40 μg/mL, without NT treatment; (4) NT plus ES group, combined treatment with NT at 50 μg/mL and ES at 40 μg/mL. […] ES treatment (ES group) inhibited the transwell migration of endothelial cells by 61%.

[6] = NT treatment, same dosage and treatment time, positively correlated to NT concentration

## C[C@@H]1[C@H](O)[C@@H](C)/C=C/C=C/C=C/C=C/C=C/C=C/C=C/[C@H](O[C@@H]2O[C@H](C)[C@@H](O)[C@H](N)[C@@H]2O)C[C@@H]2O[C@](O)(C[C@@H](O)C[C@@H](O)[C@H](O)CC[C@@H](O)C[C@@H](O)CC(=O)O[C@H]1C)C[C@H](O)[C@H]2C(=O)O [AMB, Amphotericin B]
[1]
  effect on ES internalization in endothelial cells: can increase ES internalization

## C[C@@H]1[C@H](O)[C@@H](C)/C=C/C=C/CC/C=C/C=C/C=C/C=C/C(O[C@H]2O[C@H](C)[C@@H](O)[C@H](N)[C@@H]2O)CC2O[C@](O)(CC(O)C(O)CCC(O)CC(O)CC(O)CC(=O)O[C@H]1C)CC(O)C2C(=O)O (stereo partly shown) [NT, Nystatin]
[2]; NT 75 μg/mL pre-treatment 20 min
  increase of ES internalization in mLECs: 16 fold
[2]; NT 150 μg/mL pre-treatment 20 min
  increase of ES internalization in mLECs: 32 fold
[2]; NT 300 μg/mL pre-treatment 20 min
  increase of ES internalization in mLECs: 78 fold
[3]
  effect on inhibitory efficacy of ES on tumor blood vessel formation: potentiated
H22 liver cancer; tumor blood vessel area
  effect on antiangiogenesis activity of ES: enhancement effect
H22 liver cancer; tumor weight
  effect on antitumor activity of ES: enhancement effect
[4]
  effect on Cetuximab internalization in the cells: significantly increased
[1]; NT 25 μg/mL pre-treatment 20 min
  increase of ES internalization: about 2 folds
[1]; NT 50 μg/mL pre-treatment 20 min
  increase of ES internalization: ~15 folds
[1]; NT treatment, same PEG-ES dosage and treatment time, positively correlated to NT concentration
  effect on PEG-ES internalization in blood vessel endothelial cells: increased
[1]; [6]
  effect on Endu internalization in endothelial cells: increased
  effect on PEG-Endu internalization in endothelial cells: increased
p38 MAPK pathway
  effect on activation of p38 MAPK pathway: did not influence
[5]
  effect on tumor growth (in words): did not influence tumor growth
ERK pathway
  effect on activation of ERK pathway: did not influence
HMEC
  effect on transwell migration of endothelial cells (in words): did not substantially influence

## CCCCC[C@@H](O)[C@H]1C(=O)O[C@H](C)[C@@H](O)/C=C/C=C/C=C/C=C/C=C(\C)[C@@H](O)C[C@H](O)C[C@H](O)C[C@H](O)C[C@H](O)C[C@H](O)C[C@@H]1O [filipin]
[1]
  effect on ES internalization in endothelial cells: can increase ES internalization

## methyl-β-cyclodextrin
[1]
  effect on ES internalization in endothelial cells: can increase ES internalization
